Like-named read-outs stand apart in the source and are kept apart here.
Assays:
Format in all cases: biochemical
CDK4/CCND3 = CDK4/CCND3 (Homo sapiens, UniProt P11802); test: CDK4 homogeneous time-resolved fluorescence (HTRF) kinase assay; settings: CDK4/CCND
Procedure, shortened: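 Steps: compound plus 1.5 nM CDK4/CCND3, 20 min, 23 °C; add 1 mM ATP and 50 nM ULight-4E-BP1 (Thr37/46) peptide, 60 min; stop with 10 mM EDTA; add 2 nM Eu anti-phospho antibody, 60 min; read 665 nm. IC50 from 11-point half-log series starting 10 μM.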

CDK1/CCNB1 = CDK1/CCNB1 (Homo sapiens, UniProt P06493); test: CDK1 homogeneous time-resolved fluorescence (HTRF) kinase assay; settings: CDK1/CCNB
CDK1/CCNB1, sequence (P06493 whole entry): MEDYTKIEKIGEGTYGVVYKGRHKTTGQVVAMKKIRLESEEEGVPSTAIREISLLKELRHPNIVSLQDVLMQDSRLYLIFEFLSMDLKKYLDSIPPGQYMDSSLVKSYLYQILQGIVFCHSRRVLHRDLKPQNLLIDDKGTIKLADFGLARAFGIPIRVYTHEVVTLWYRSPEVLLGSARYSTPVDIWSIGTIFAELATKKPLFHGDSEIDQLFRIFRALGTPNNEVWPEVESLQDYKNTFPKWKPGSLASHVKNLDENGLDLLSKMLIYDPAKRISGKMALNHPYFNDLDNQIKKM
CDK1/CCNB1, sequence (P14635 whole entry partner): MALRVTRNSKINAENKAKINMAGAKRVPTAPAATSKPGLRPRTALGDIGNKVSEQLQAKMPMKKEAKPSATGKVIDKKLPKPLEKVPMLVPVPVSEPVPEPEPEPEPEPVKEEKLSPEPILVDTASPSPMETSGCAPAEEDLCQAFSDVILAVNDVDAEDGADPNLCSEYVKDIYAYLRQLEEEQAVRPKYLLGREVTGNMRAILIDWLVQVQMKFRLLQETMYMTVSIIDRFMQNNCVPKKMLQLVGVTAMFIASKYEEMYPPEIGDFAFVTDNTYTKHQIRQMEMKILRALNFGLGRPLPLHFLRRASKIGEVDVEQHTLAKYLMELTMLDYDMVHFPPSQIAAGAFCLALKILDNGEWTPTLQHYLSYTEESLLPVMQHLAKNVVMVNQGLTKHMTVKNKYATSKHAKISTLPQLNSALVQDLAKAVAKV
Procedure, shortened: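 0.5 nM CDK1/CCNB1 was preincubated 20 min at 23 °C with compound in HEPES pH-unspecified buffer (MgCl2, EGTA, DTT, Tween 20), then reacted 60 min with 1 mM ATP and 50 nM ULight-4E-BP1 (Thr37/46) peptide. EDTA-stopped reactions were detected with 2 nM Eu-anti-phospho antibody; IC50 from 11-point half-log titrations.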

CDK6/CCND1 = CDK6/CCND1 (Homo sapiens, UniProt Q00534); test: CDK6 homogeneous time-resolved fluorescence (HTRF) kinase assay; settings: CDK6/CCND, 1 mM ATP
CDK6/CCND1, sequence (Q00534 whole entry): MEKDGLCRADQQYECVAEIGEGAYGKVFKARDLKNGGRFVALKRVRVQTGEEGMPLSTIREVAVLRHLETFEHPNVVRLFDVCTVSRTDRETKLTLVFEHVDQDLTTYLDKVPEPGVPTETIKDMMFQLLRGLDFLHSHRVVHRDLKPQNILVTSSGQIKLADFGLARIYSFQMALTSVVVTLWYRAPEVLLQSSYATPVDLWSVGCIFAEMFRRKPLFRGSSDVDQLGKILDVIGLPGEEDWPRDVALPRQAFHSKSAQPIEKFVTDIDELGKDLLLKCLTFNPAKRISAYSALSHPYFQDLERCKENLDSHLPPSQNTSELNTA
CDK6/CCND1, sequence (P24385 whole entry partner): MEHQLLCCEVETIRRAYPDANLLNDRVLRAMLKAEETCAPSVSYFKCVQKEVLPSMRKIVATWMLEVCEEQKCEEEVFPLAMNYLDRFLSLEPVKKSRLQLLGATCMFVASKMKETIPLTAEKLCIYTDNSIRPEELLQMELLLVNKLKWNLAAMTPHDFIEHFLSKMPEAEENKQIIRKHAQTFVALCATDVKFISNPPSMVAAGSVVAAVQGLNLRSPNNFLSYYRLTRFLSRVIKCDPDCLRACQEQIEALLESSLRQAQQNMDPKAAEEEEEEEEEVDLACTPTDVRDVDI
Procedure, shortened: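 Enzyme pre-incubated 20 min at 23 °C with compound, then reacted 60 min at 23 °C with 1 mM ATP and 50 nM ULight-4E-BP1 (Thr37/46) peptide; 1 nM enzyme, 1% DMSO. EDTA-stopped, Eu-anti-phospho antibody TR-FRET read (665 nm or 665/615 ratio); 11-point half-log titration from 10 μM gave IC50.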

CDK2/CCNE1 = CDK2/CCNE1 (Homo sapiens, UniProt P24941); test: CDK2 homogeneous time-resolved fluorescence (HTRF) kinase assay; settings: CDK2/CCNE
Procedure, shortened: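 Compounds were titrated 11-point, half-log from typically 10 μM against 3 nM CDK2/cyclin E1 at 1 mM ATP, with a 20 min enzyme preincubation. Phosphorylation of 50 nM ULight-4E-BP1 peptide over 60 min at 23 °C was detected by europium anti-phospho antibody TR-FRET.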

[1] = >250 nM, read-out: CDK4/CCND IC50, >250 nM
[2] = >250 nM, read-out: CDK1/CCNB IC50 >250 nM
[3] = >250 nM, read-out: CDK6/CCND IC50, >250 nM
[4] = 25-250 nM, read-out: CDK2/CCNE IC50, 25-250 nM
[5] = <25 nM, read-out: CDK2/CCNE IC50, <25 nM
[6] = 25-250 nM, read-out: CDK4/CCND IC50, 25-250 nM
[7] = 25-250 nM, read-out: CDK1/CCNB IC50, 25-250 nM
[8] = 25-250 nM, read-out: CDK6/CCND IC50, 25-250 nM

CDK4/CCND3, sequence (P11802 whole entry): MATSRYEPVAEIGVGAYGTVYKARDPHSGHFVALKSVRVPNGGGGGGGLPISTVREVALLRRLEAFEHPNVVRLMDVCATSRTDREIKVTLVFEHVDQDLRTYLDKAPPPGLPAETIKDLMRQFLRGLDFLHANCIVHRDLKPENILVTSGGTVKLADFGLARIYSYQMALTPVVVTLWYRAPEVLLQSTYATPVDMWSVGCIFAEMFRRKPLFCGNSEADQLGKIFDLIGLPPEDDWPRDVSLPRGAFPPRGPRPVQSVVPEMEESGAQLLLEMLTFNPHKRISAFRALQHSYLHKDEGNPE
CDK4/CCND3, sequence (P30281 whole entry partner): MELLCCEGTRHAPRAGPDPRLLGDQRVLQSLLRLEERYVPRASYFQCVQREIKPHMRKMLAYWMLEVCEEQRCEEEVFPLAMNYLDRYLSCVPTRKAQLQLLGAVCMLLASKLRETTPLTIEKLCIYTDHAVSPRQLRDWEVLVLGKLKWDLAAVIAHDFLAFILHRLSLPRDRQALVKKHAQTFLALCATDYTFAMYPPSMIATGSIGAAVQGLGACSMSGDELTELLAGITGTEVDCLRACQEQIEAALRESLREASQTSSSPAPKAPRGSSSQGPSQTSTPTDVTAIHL

SMILES | IC50 (CDK4/CCND3; [1]) [nM] | IC50 (CDK1/CCNB1; [2]) [nM] | IC50 (CDK6/CCND1; [3]) [nM] | IC50 (CDK2/CCNE1; [4]) [nM] | IC50 (CDK2/CCNE1; [5]) [nM] | IC50 (CDK4/CCND3; [6]) [nM] | IC50 (CDK1/CCNB1; [7]) [nM] | IC50 (CDK6/CCND1; [8]) [nM]
Cc1c(-c2nccc3cnc(Nc4ccc(S(=O)(=O)NC5CCCCC5)cc4)cc23)ccc2c1cnn2CC(C)(C)O [Ex 758, N-cyclohexyl-4-((5-(1-(2-hydroxy-2-methylpropyl)-4-methyl-1H-indazol-5-yl)-2,6-naphthyridin-3-yl)amino)benzenesulfonamide] | > 250 | > 250 | > 250 | 25 to 250 |  |  |  | 
Cc1ccnc(NS(=O)(=O)c2ccc(Nc3cc4c(-c5ccc6c(cnn6CC(O)(C(F)(F)F)C(F)(F)F)c5C)nccc4cn3)cc2)n1 [Ex 759, 4-((5-(4-methyl-1-(3,3,3-trifluoro-2-hydroxy-2-(trifluoromethyl)propyl)-1H-indazol-5-yl)-2,6-naphthyridin-3-yl)amino)-N-(4-methylpyrimidin-2-yl)benzenesulfonamide] | > 250 | > 250 | > 250 |  | < 25 |  |  | 
Cc1c(-c2nccc3cnc(Nc4ccc(S(=O)(=O)NC5CCN(CCO)CC5)cc4)cc23)ccc2c1cnn2CC(C)(C)O [Ex 762, 4-((5-(1-(2-hydroxy-2-methylpropyl)-4-methyl-1H-indazol-5-yl)-2,6-naphthyridin-3-yl)amino)-N-(1-(2-hydroxyethyl)piperidin-4-yl)benzenesulfonamide] |  |  |  |  | < 25 | 25 to 250 | 25 to 250 | 25 to 250
Cc1c(-c2nccc3cnc(Nc4ccc(S(=O)(=O)NC5CCN(C)CC5)cc4)cc23)ccc2c1cnn2CC(C)(C)O [Ex 763, 4-((5-(1-(2-hydroxy-2-methylpropyl)-4-methyl-1H-indazol-5-yl)-2,6-naphthyridin-3-yl)amino)-N-(1-methylpiperidin-4-yl)benzenesulfonamide] |  |  |  |  | < 25 | 25 to 250 | 25 to 250 | 25 to 250
Cc1c(-c2nccc3cnc(Nc4ccc(S(=O)(=O)NC5CCNCC5)cc4)cc23)ccc2c1cnn2CC(C)(C)O [Ex 764, 4-((5-(1-(2-hydroxy-2-methylpropyl)-4-methyl-1H-indazol-5-yl)-2,6-naphthyridin-3-yl)amino)-N-(piperidin-4-yl)benzenesulfonamide] |  | > 250 |  |  | < 25 | 25 to 250 |  | 25 to 250
COc1nc(S(C)(=O)=O)ccc1Nc1cc2c(-c3ccc4c(cnn4CC(C)(C)O)c3C)nccc2cn1 [Ex 766, 1-(5-(7-((2-methoxy-6-(methylsulfonyl)pyridin-3-yl)amino)-2,6-naphthyridin-1-yl)-4-methyl-1H-indazol-1-yl)-2-methylpropan-2-ol] | > 250 | > 250 | > 250 | 25 to 250 |  |  |  | 
Cc1c(-c2nccc3cnc(Nc4ccc(NS(=O)(=O)c5ccc(N6CCNCC6)cc5)cc4)cc23)ccc2c1cnn2CC(C)(C)O [Ex 767, N-(4-((5-(1-(2-hydroxy-2-methylpropyl)-4-methyl-1H-indazol-5-yl)-2,6-naphthyridin-3-yl)amino)phenyl)-4-(piperazin-1-yl)benzenesulfonamide] | > 250 | > 250 | > 250 |  | < 25 |  |  | 
Cc1c(-c2nccc3cnc(Nc4ccc(NS(=O)(=O)c5ccccn5)cc4)cc23)ccc2c1cnn2CC(C)(C)O [Ex 768, N-(4-((5-(1-(2-hydroxy-2-methylpropyl)-4-methyl-1H-indazol-5-yl)-2,6-naphthyridin-3-yl)amino)phenyl)pyridine-2-sulfonamide] |  |  |  |  | < 25 | 25 to 250 | 25 to 250 | 25 to 250
Cc1c(-c2nccc3cnc(Nc4ccc(S(=O)(=O)Nc5nccc(N6CCOCC6)n5)cc4)cc23)ccc2c1cnn2CC(O)(C(F)(F)F)C(F)(F)F [Ex 769, 4-((5-(4-methyl-1-(3,3,3-trifluoro-2-hydroxy-2-(trifluoromethyl)propyl)-1H-indazol-5-yl)-2,6-naphthyridin-3-yl)amino)-N-(4-morpholinopyrimidin-2-yl)benzenesulfonamide] | > 250 | > 250 | > 250 |  | < 25 |  |  | 
Cc1c(-c2nccc3cnc(Nc4ccc(S(=O)(=O)Nc5cc(N6CCOCC6)ccn5)cc4)cc23)ccc2c1cnn2CC(C)(C)O [Ex 772, 4-((5-(1-(2-hydroxy-2-methylpropyl)-4-methyl-1H-indazol-5-yl)-2,6-naphthyridin-3-yl)amino)-N-(4-morpholinopyridin-2-yl)benzenesulfonamide] |  | > 250 |  |  | < 25 | 25 to 250 |  | 25 to 250
Cc1c(-c2nccc3cnc(Nc4ccc(S(=O)(=O)Nc5ccc(N6CCOCC6)cn5)cc4)cc23)ccc2c1cnn2CC(C)(C)O [Ex 773, 4-((5-(1-(2-hydroxy-2-methylpropyl)-4-methyl-1H-indazol-5-yl)-2,6-naphthyridin-3-yl)amino)-N-(5-morpholinopyridin-2-yl)benzenesulfonamide] |  | > 250 |  |  | < 25 | 25 to 250 |  | 25 to 250
Cc1c(-c2nccc3cnc(Nc4ccc(S(=O)(=O)Nc5cc(C(C)(C)O)ccn5)cc4)cc23)ccc2c1cnn2CC(C)(C)O [Ex 774, 4-((5-(1-(2-hydroxy-2-methylpropyl)-4-methyl-1H-indazol-5-yl)-2,6-naphthyridin-3-yl)amino)-N-(4-(2-hydroxypropan-2-yl)pyridin-2-yl)benzenesulfonamide] |  | > 250 |  |  | < 25 | 25 to 250 |  | 25 to 250
Cc1c(-c2nccc3cnc(Nc4ccc(S(=O)(=O)Nc5cc(C(F)(F)F)cc(C(F)(F)F)n5)cc4)cc23)ccc2c1cnn2CC(C)(C)O [Ex 775, N-(4,6-bis(trifluoromethyl)pyridin-2-yl)-4-((5-(1-(2-hydroxy-2-methylpropyl)-4-methyl-1H-indazol-5-yl)-2,6-naphthyridin-3-yl)amino)benzenesulfonamide] | > 250 | > 250 | > 250 |  | < 25 |  |  | 
Cc1c(-c2nccc3cnc(Nc4ccc(NS(=O)(=O)c5ccc(Cl)cn5)cc4)cc23)ccc2c1cnn2CC(C)(C)O [Ex 777, 5-chloro-N-(4-((5-(1-(2-hydroxy-2-methylpropyl)-4-methyl-1H-indazol-5-yl)-2,6-naphthyridin-3-yl)amino)phenyl)pyridine-2-sulfonamide] | > 250 | > 250 | > 250 |  | < 25 |  |  | 
Cc1c(-c2nccc3cnc(Nc4ccc(NS(=O)(=O)c5ccc(C(F)(F)F)nc5)cc4)cc23)ccc2c1cnn2CC(C)(C)O [Ex 778, N-(4-((5-(1-(2-hydroxy-2-methylpropyl)-4-methyl-1H-indazol-5-yl)-2,6-naphthyridin-3-yl)amino)phenyl)-6-(trifluoromethyl)pyridine-3-sulfonamide] | > 250 | > 250 | > 250 | 25 to 250 |  |  |  | 
COc1ccc(S(=O)(=O)Nc2ccc(Nc3cc4c(-c5ccc6c(cnn6CC(C)(C)O)c5C)nccc4cn3)cc2)cn1 [Ex 779, N-(4-((5-(1-(2-hydroxy-2-methylpropyl)-4-methyl-1H-indazol-5-yl)-2,6-naphthyridin-3-yl)amino)phenyl)-6-methoxypyridine-3-sulfonamide] | > 250 | > 250 | > 250 |  | < 25 |  |  | 
